Reference: patent US12377110B2, “Fospropofol methods and compositions” (Epalex Corporation, priority 2019, dated 2025)
Like-named read-outs stand apart in the source and are kept apart here.

Test: Study A16 Part 1: PK of single ascending oral doses of fospropofol disodium (200 to 2000 mg), fasted healthy adults
Type: in vivo, human
Conditions: for AUC / Cmax / Tmax / AUC(0-t) / AUC(0-inf) / half-life: human, plasma; for Cmax: read-out: Fospropofol Cmax; for AUC(0-t): read-out: Fospropofol AUC0-T; for AUC(0-inf): read-out: Fospropofol AUC0-∞; for half-life: read-out: Fospropofol t1/2 (converted)
Procedure: Part 1 of Study A16 was a double-blind, randomized, placebo-controlled study to investigate the safety-tolerability and PK of oral administration of single ascending doses of fospropofol disodium to healthy adult male and female volunteers.
Subjects were healthy adults (age 18-55 years inclusive, BMI 18-29.9 kg/m^2). Separate cohorts of 12 subjects each were randomized to receive fospropofol disodium at doses of 200, 400, 800, 1000, 1200, 1600, or 2000 mg (n=10 per cohort) or matching placebo (n=2 per cohort).
Subjects were admitted to the clinical unit for an overnight fast (Day −1), administered study drug on Day 1, and remained in the clinical unit until Day 2.
Fospropofol disodium was formulated as powder in an HPMC capsule, each capsule containing 200 mg of fospropofol disodium (weight adjusted for water content). Placebo was administered as an appropriate number of matching capsules.
Based on PK results from the early cohorts, sampling times were optimized beginning with Cohort 3 (800 mg) to preclose, 5, 10, 15, 20, 25, 30, 37, and 45, minutes and 1, 2, 4, 6, and 9 hours after closing.

[1] = both sexes, oral fospropofol disodium 200 mg, mean
[2] = both sexes, oral fospropofol disodium 400 mg, mean
[3] = both sexes, oral fospropofol disodium 800 mg, mean
[4] = both sexes, oral fospropofol disodium 1000 mg, mean
[5] = both sexes, oral fospropofol disodium 1200 mg, mean
[6] = both sexes, oral fospropofol disodium 1600 mg, mean
[7] = both sexes, oral fospropofol disodium 2000 mg, mean
[8] = oral fospropofol disodium 1200 mg, Fasted (Cohort 5), n = 10, mean

CC(C)c1cccc(C(C)C)c1OCOP(=O)(O)O [fospropofol, (2,6-diisopropylphenoxy)methyl dihydrogen phosphate]
Dose proportionality of fospropofol AUC0-2h, AUC0-T, AUC0-∞, and Cmax (power model) (200 mg to 2000 mg): close proportional | AUC (both sexes, oral, 800 mg, subjects 301-312 (800 mg cohort), Mean, read-out: Fospropofol AUC1): 2780 ng·h/mL | AUC (both sexes, oral, 800 mg, subjects 301-312 (800 mg cohort), Mean, read-out: Fospropofol AUC2): 3330 ng·h/mL | AUC (both sexes, oral, 800 mg, subjects 301-312 (800 mg cohort), Mean, read-out: Fospropofol AUC4): 3440 ng·h/mL | Cmax (both sexes, oral, 800 mg, subjects 301-312 (800 mg cohort), Mean): 6040 ng/mL | Tmax (both sexes, oral, 800 mg, subjects 301-312 (800 mg cohort), Mean, read-out: Fospropofol Tmax): 20.4 min | Tmax (both sexes, oral, 800 mg, subjects 301-312 (800 mg cohort), individual subjects (Subject No. in c0), read-out: Fospropofol Tmax): 30 min | Tmax (both sexes, oral, 200 to 2000 mg cohorts, read-out: Fospropofol median Tmax (converted)): ~20 min | Cmax (both sexes, po, 200 mg, oral fospropofol disodium 200 mg, mean): 1980 ng/mL | Tmax (both sexes, po, 200 mg, oral fospropofol disodium 200 mg, median, read-out: Fospropofol Tmax): 19.8 min | Cmax (both sexes, po, 400 mg, oral fospropofol disodium 400 mg, mean): 4460 ng/mL | Tmax (both sexes, po, 400 mg, oral fospropofol disodium 400 mg, median, read-out: Fospropofol Tmax): 19.8 min | Cmax (both sexes, po, 800 mg, oral fospropofol disodium 800 mg, mean): 6040 ng/mL | Tmax (both sexes, po, 800 mg, oral fospropofol disodium 800 mg, median, read-out: Fospropofol Tmax): 19.8 min | Cmax (both sexes, po, 1000 mg, oral fospropofol disodium 1000 mg, mean): 8240 ng/mL | Tmax (both sexes, po, 1000 mg, oral fospropofol disodium 1000 mg, median, read-out: Fospropofol Tmax): 19.8 min | Cmax (both sexes, po, 1200 mg, oral fospropofol disodium 1200 mg, Fasted (Cohort 5), n = 10, mean): 7110 ng/mL | Tmax (both sexes, po, 1200 mg, oral fospropofol disodium 1200 mg, Fasted (Cohort 5), n = 10, median, read-out: Fospropofol Tmax): 19.8 min | Cmax (both sexes, po, 1200 mg, oral fospropofol disodium 1200 mg, mean): 7110 ng/mL | Tmax (both sexes, po, 1200 mg, oral fospropofol disodium 1200 mg, median, read-out: Fospropofol Tmax): 19.8 min | Cmax (both sexes, po, 1600 mg, oral fospropofol disodium 1600 mg, mean): 10200 ng/mL | Tmax (both sexes, po, 1600 mg, oral fospropofol disodium 1600 mg, median, read-out: Fospropofol Tmax): 19.8 min | Cmax (both sexes, po, 2000 mg, oral fospropofol disodium 2000 mg, mean): 17100 ng/mL | Tmax (both sexes, po, 2000 mg, oral fospropofol disodium 2000 mg, median, read-out: Fospropofol Tmax): 22.8 min | AUC(0-t) [1]: 856 ng·h/mL | AUC(0-inf) [1]: 882 ng·h/mL | half-life [1]: 12.6 min | AUC(0-t) [2]: 2200 ng·h/mL | AUC(0-inf) [2]: 2230 ng·h/mL | half-life [2]: 14.4 min | AUC(0-t) [3]: 3290 ng·h/mL | AUC(0-inf) [3]: 3360 ng·h/mL | half-life [3]: 16.2 min | AUC(0-t) [4]: 4700 ng·h/mL | AUC(0-inf) [4]: 4840 ng·h/mL | half-life [4]: 17.4 min | AUC(0-t) [5]: 4400 ng·h/mL | AUC(0-inf) [5]: 4500 ng·h/mL | half-life [5]: 20.4 min | AUC(0-t) [6]: 6090 ng·h/mL | AUC(0-inf) [6]: 6300 ng·h/mL | half-life [6]: 21 min | AUC(0-t) [7]: 10800 ng·h/mL | AUC(0-inf) [7]: 11000 ng·h/mL | half-life [7]: 22.2 min | Fospropofol concentration relative to Cmax (by 2 hours after dosing): less than 10 % of Cmax | Fospropofol AUC0-T/mg FOSP DiNa (dose 200 mg FOSPDiNa): 4.28 (ng · h/mL)/mg | Fospropofol AUC0-∞/mg FOSP DiNa (dose 200 mg FOSPDiNa): 4.41 (ng · h/mL)/mg | Fospropofol Cmax/mg FOSP DiNa (dose 200 mg FOSPDiNa): 9.89 (ng/mL)/mg | Fospropofol AUC0-T/mg FOSP DiNa (dose 400 mg FOSPDiNa): 5.51 (ng · h/mL)/mg | Fospropofol AUC0-∞/mg FOSP DiNa (dose 400 mg FOSPDiNa): 5.58 (ng · h/mL)/mg | Fospropofol Cmax/mg FOSP DiNa (dose 400 mg FOSPDiNa): 11.15 (ng/mL)/mg | Fospropofol AUC0-T/mg FOSP DiNa (dose 800 mg FOSPDiNa): 4.11 (ng · h/mL)/mg | Fospropofol AUC0-∞/mg FOSP DiNa (dose 800 mg FOSPDiNa): 4.20 (ng · h/mL)/mg | Fospropofol Cmax/mg FOSP DiNa (dose 800 mg FOSPDiNa): 7.55 (ng/mL)/mg | Fospropofol AUC0-T/mg FOSP DiNa (dose 1000 mg FOSPDiNa): 4.70 (ng · h/mL)/mg | Fospropofol AUC0-∞/mg FOSP DiNa (dose 1000 mg FOSPDiNa): 4.85 (ng · h/mL)/mg | Fospropofol Cmax/mg FOSP DiNa (dose 1000 mg FOSPDiNa): 8.24 (ng/mL)/mg | Fospropofol AUC0-T/mg FOSP DiNa (dose 1200 mg FOSPDiNa): 3.67 (ng · h/mL)/mg | Fospropofol AUC0-∞/mg FOSP DiNa (dose 1200 mg FOSPDiNa): 3.75 (ng · h/mL)/mg | Fospropofol Cmax/mg FOSP DiNa (dose 1200 mg FOSPDiNa): 5.93 (ng/mL)/mg | Fospropofol AUC0-T/mg FOSP DiNa (dose 1600 mg FOSPDiNa): 3.81 (ng · h/mL)/mg | Fospropofol AUC0-∞/mg FOSP DiNa (dose 1600 mg FOSPDiNa): 3.94 (ng · h/mL)/mg | Fospropofol Cmax/mg FOSP DiNa (dose 1600 mg FOSPDiNa): 6.40 (ng/mL)/mg | Fospropofol AUC0-T/mg FOSP DiNa (dose 2000 mg FOSPDiNa): 5.41 (ng · h/mL)/mg | Fospropofol AUC0-∞/mg FOSP DiNa (dose 2000 mg FOSPDiNa): 5.49 (ng · h/mL)/mg | Fospropofol Cmax/mg FOSP DiNa (dose 2000 mg FOSPDiNa): 8.54 (ng/mL)/mg | AUC (female, oral, 800 mg, females only (800 mg cohort), Mean, read-out: Fospropofol Auc1): 3050 ng·h/mL | AUC (female, oral, 800 mg, females only (800 mg cohort), Mean, read-out: Fospropofol Auc2): 3710 ng·h/mL | AUC (female, oral, 800 mg, females only (800 mg cohort), Mean, read-out: Fospropofol Auc4): 3870 ng·h/mL | Cmax (female, oral, 800 mg, females only (800 mg cohort), Mean): 6730 ng/mL | Tmax (female, oral, 800 mg, females only (800 mg cohort), Mean, read-out: Fospropofol Tmax): 22.2 min | AUC (female, oral, 800 mg, females only (800 mg cohort), individual subjects (Subject No. in c0), read-out: Fospropofol Auc1): 4160 ng·h/mL | AUC (female, oral, 800 mg, females only (800 mg cohort), individual subjects (Subject No. in c0), read-out: Fospropofol Auc2): 5000 ng·h/mL | AUC (female, oral, 800 mg, females only (800 mg cohort), individual subjects (Subject No. in c0), read-out: Fospropofol Auc4): 5160 ng·h/mL | Tmax (female, oral, 800 mg, females only (800 mg cohort), individual subjects (Subject No. in c0), read-out: Fospropofol Tmax): 30 min | Fospropofol Auc1 CV (%) (females only (800 mg cohort)): 23.3% | Fospropofol Auc2 CV (%) (females only (800 mg cohort)): 23.1% | Fospropofol Auc4 CV (%) (females only (800 mg cohort)): 23.3% | Fospropofol Cmax CV (%) (females only (800 mg cohort)): 32.2% | Fospropofol Tmax CV (%) (females only (800 mg cohort)): 27.3% | Fospropofol CL/F (oral fospropofol disodium 200 mg, mean): 277 L/h | Fospropofol CL/F (oral fospropofol disodium 400 mg, mean): 211 L/h | Fospropofol CL/F (oral fospropofol disodium 800 mg, mean): 254 L/h | Fospropofol CL/F (oral fospropofol disodium 1000 mg, mean): 229 L/h | Fospropofol AUC0-T [8]: 4399 ng·h/mL | Fospropofol CL/F [8]: 288 L/h
